Experimental data reported in ChEMBL document CHEMBL5724914, “Linking interpersonal differences in gut microbiota composition and drug biotransformation activity” (2024).

Test: (§1) The drug is tested on Z-019 corresponding to rat gut metagenome with ENA study accession number: PRJEB37062 and ENA sample accession number: ERS12561818 for biotransformation under anaerobic condition. The drug concentrations were measured over 9 timepoints collected between 0 and 24 hours of incubation by liquid-chromatography-coupled mass spectrometry (LC–MS)
Conditions: 2 µM
Also: call rule not given here.

Row | Bacterial Biotransformation | Compound
1 | Compound NOT metabolized | OCCOCCN1CCN(C2=Nc3ccccc3Sc3ccccc32)CC1 [QUETIAPINE]
2 | Compound NOT metabolized | O=C(O)COCCN1CCN(C(c2ccccc2)c2ccc(Cl)cc2)CC1 (stereo not given) [CETIRIZINE]

Test: as §1, with “on Z-017” for “on Z-019”, “to mouse” for “to rat”, “number: ERS12561816” for “number: ERS12561818”
Conditions: 2 µM

Row | Bacterial Biotransformation | Compound
3 | Compound NOT metabolized | OCCOCCN1CCN(C2=Nc3ccccc3Sc3ccccc32)CC1 [QUETIAPINE]
4 | Compound NOT metabolized | O=C(O)COCCN1CCN(C(c2ccccc2)c2ccc(Cl)cc2)CC1 (stereo not given) [CETIRIZINE]

Test: as §1, with “on Z-016” for “on Z-019”, “to mouse” for “to rat”, “number: ERS12561815” for “number: ERS12561818”
Conditions: 2 µM

Row | Bacterial Biotransformation | Compound
5 | Compound NOT metabolized | OCCOCCN1CCN(C2=Nc3ccccc3Sc3ccccc32)CC1 [QUETIAPINE]
6 | Compound metabolized | O=C(O)COCCN1CCN(C(c2ccccc2)c2ccc(Cl)cc2)CC1 (stereo not given) [CETIRIZINE]

Test: as §1, with “Z-014” for “Z-019”, “ERS12561814” for “ERS12561818”
Conditions: 2 µM

Row | Bacterial Biotransformation | Compound
7 | Compound NOT metabolized | OCCOCCN1CCN(C2=Nc3ccccc3Sc3ccccc32)CC1 [QUETIAPINE]
8 | Compound NOT metabolized | O=C(O)COCCN1CCN(C(c2ccccc2)c2ccc(Cl)cc2)CC1 (stereo not given) [CETIRIZINE]

Test: as §1, with “on Z-013” for “on Z-019”, “to rabbit” for “to rat”, “number: ERS12561813” for “number: ERS12561818”
Conditions: 2 µM

Row | Bacterial Biotransformation | Compound
9 | Compound NOT metabolized | OCCOCCN1CCN(C2=Nc3ccccc3Sc3ccccc32)CC1 [QUETIAPINE]
10 | Compound NOT metabolized | O=C(O)COCCN1CCN(C(c2ccccc2)c2ccc(Cl)cc2)CC1 (stereo not given) [CETIRIZINE]

Test: as §1, with “Z-008” for “Z-019”, “to” for “to rat gut”, “ERS12561808” for “ERS12561818”
Conditions: 2 µM

Row | Bacterial Biotransformation | Compound
11 | Compound NOT metabolized | OCCOCCN1CCN(C2=Nc3ccccc3Sc3ccccc32)CC1 [QUETIAPINE]
12 | Compound NOT metabolized | O=C(O)COCCN1CCN(C(c2ccccc2)c2ccc(Cl)cc2)CC1 (stereo not given) [CETIRIZINE]

Test: as §1, with “on WLS-310” for “on Z-019”, “to human” for “to rat”, “number: ERS12561785” for “number: ERS12561818”
Conditions: 2 µM

Row | Bacterial Biotransformation | Compound
13 | Compound NOT metabolized | OCCOCCN1CCN(C2=Nc3ccccc3Sc3ccccc32)CC1 [QUETIAPINE]
14 | Compound metabolized | O=C(O)COCCN1CCN(C(c2ccccc2)c2ccc(Cl)cc2)CC1 (stereo not given) [CETIRIZINE]

Test: as §1, with “on WLS-220” for “on Z-019”, “to human” for “to rat”, “number: ERS12561769” for “number: ERS12561818”
Conditions: 2 µM

Row | Bacterial Biotransformation | Compound
15 | Compound metabolized | OCCOCCN1CCN(C2=Nc3ccccc3Sc3ccccc32)CC1 [QUETIAPINE]
16 | Compound metabolized | O=C(O)COCCN1CCN(C(c2ccccc2)c2ccc(Cl)cc2)CC1 (stereo not given) [CETIRIZINE]

Test: as §1, with “on WLS-086” for “on Z-019”, “to human” for “to rat”, “number: ERS12561752” for “number: ERS12561818”
Conditions: 2 µM

Row | Bacterial Biotransformation | Compound
17 | Compound metabolized | OCCOCCN1CCN(C2=Nc3ccccc3Sc3ccccc32)CC1 [QUETIAPINE]
18 | Compound metabolized | O=C(O)COCCN1CCN(C(c2ccccc2)c2ccc(Cl)cc2)CC1 (stereo not given) [CETIRIZINE]

Test: as §1, with “on WLS-073” for “on Z-019”, “to human” for “to rat”, “number: ERS12561749” for “number: ERS12561818”
Conditions: 2 µM

Row | Bacterial Biotransformation | Compound
19 | Compound NOT metabolized | OCCOCCN1CCN(C2=Nc3ccccc3Sc3ccccc32)CC1 [QUETIAPINE]
20 | Compound metabolized | O=C(O)COCCN1CCN(C(c2ccccc2)c2ccc(Cl)cc2)CC1 (stereo not given) [CETIRIZINE]

Test: as §1, with “on WLS-038” for “on Z-019”, “to human” for “to rat”, “number: ERS12561745” for “number: ERS12561818”
Conditions: 2 µM

Row | Bacterial Biotransformation | Compound
21 | Compound NOT metabolized | OCCOCCN1CCN(C2=Nc3ccccc3Sc3ccccc32)CC1 [QUETIAPINE]
22 | Compound metabolized | O=C(O)COCCN1CCN(C(c2ccccc2)c2ccc(Cl)cc2)CC1 (stereo not given) [CETIRIZINE]

Test: as §1, with “on WLS-007” for “on Z-019”, “to human” for “to rat”, “number: ERS12561742” for “number: ERS12561818”
Conditions: 2 µM

Row | Bacterial Biotransformation | Compound
23 | Compound NOT metabolized | OCCOCCN1CCN(C2=Nc3ccccc3Sc3ccccc32)CC1 [QUETIAPINE]
24 | Compound metabolized | O=C(O)COCCN1CCN(C(c2ccccc2)c2ccc(Cl)cc2)CC1 (stereo not given) [CETIRIZINE]

Conditions: human gut metagenome, 24 h, 2 µM

Row | Bacterial Biotransformation | Compound
25 | Compound NOT metabolized | OCCOCCN1CCN(C2=Nc3ccccc3Sc3ccccc32)CC1 [QUETIAPINE]
26 | Compound metabolized | O=C(O)COCCN1CCN(C(c2ccccc2)c2ccc(Cl)cc2)CC1 (stereo not given) [CETIRIZINE]

Conditions: human gut metagenome, 24 h, 2 µM
Remark: another data set of the same source

Row | Bacterial Biotransformation | Compound
27 | Compound metabolized | OCCOCCN1CCN(C2=Nc3ccccc3Sc3ccccc32)CC1 [QUETIAPINE]
28 | Compound metabolized | O=C(O)COCCN1CCN(C(c2ccccc2)c2ccc(Cl)cc2)CC1 (stereo not given) [CETIRIZINE]

Conditions: human gut metagenome, 24 h, 2 µM
Remark: another data set of the same source

Row | Bacterial Biotransformation | Compound
29 | Compound metabolized | OCCOCCN1CCN(C2=Nc3ccccc3Sc3ccccc32)CC1 [QUETIAPINE]
30 | Compound metabolized | O=C(O)COCCN1CCN(C(c2ccccc2)c2ccc(Cl)cc2)CC1 (stereo not given) [CETIRIZINE]

Conditions: human gut metagenome, 24 h, 2 µM
Remark: another data set of the same source

Row | Bacterial Biotransformation | Compound
31 | Compound metabolized | OCCOCCN1CCN(C2=Nc3ccccc3Sc3ccccc32)CC1 [QUETIAPINE]
32 | Compound metabolized | O=C(O)COCCN1CCN(C(c2ccccc2)c2ccc(Cl)cc2)CC1 (stereo not given) [CETIRIZINE]

Conditions: human gut metagenome, 24 h, 2 µM
Remark: another data set of the same source

Row | Bacterial Biotransformation | Compound
33 | Compound metabolized | OCCOCCN1CCN(C2=Nc3ccccc3Sc3ccccc32)CC1 [QUETIAPINE]
34 | Compound metabolized | O=C(O)COCCN1CCN(C(c2ccccc2)c2ccc(Cl)cc2)CC1 (stereo not given) [CETIRIZINE]

Conditions: human gut metagenome, 24 h, 2 µM
Remark: another data set of the same source

Row | Bacterial Biotransformation | Compound
35 | Compound NOT metabolized | OCCOCCN1CCN(C2=Nc3ccccc3Sc3ccccc32)CC1 [QUETIAPINE]
36 | Compound metabolized | O=C(O)COCCN1CCN(C(c2ccccc2)c2ccc(Cl)cc2)CC1 (stereo not given) [CETIRIZINE]

Conditions: human gut metagenome, 24 h, 2 µM
Remark: another data set of the same source

Row | Bacterial Biotransformation | Compound
37 | Compound metabolized | OCCOCCN1CCN(C2=Nc3ccccc3Sc3ccccc32)CC1 [QUETIAPINE]
38 | Compound metabolized | O=C(O)COCCN1CCN(C(c2ccccc2)c2ccc(Cl)cc2)CC1 (stereo not given) [CETIRIZINE]

Conditions: human gut metagenome, 24 h, 2 µM
Remark: another data set of the same source

Row | Bacterial Biotransformation | Compound
39 | Compound metabolized | OCCOCCN1CCN(C2=Nc3ccccc3Sc3ccccc32)CC1 [QUETIAPINE]
40 | Compound metabolized | O=C(O)COCCN1CCN(C(c2ccccc2)c2ccc(Cl)cc2)CC1 (stereo not given) [CETIRIZINE]
